This passage reports melting point and IC50 results from patent US20050234029A1, “Compounds” (priority 2002, published 2005).

For series [1], the system named is TGF-β signalling (PAI-1 promoter-luciferase in HepG2 cells). The series can be described thus: Cellular transcriptional assay (PAI-1 promoter luciferase reporter). The series is classed as cell-based. As to conditions: Homo sapiens, PAI-1 promoter firefly luciferase, rhTGFβ-1 1 ng/mL. The method, then: Assay 1 (Cellular Transcriptional Assay)
These plates were placed in a cell incubator.
Columns 11 and 12 were employed as controls.
On the technique in general: Reporter assays use an easily measured gene product as a stand-in for the process of interest.

Series [2] deals with T1, recombinant GST-ALK5 (residues 198-503) (Homo sapiens, UniProt P36897).
T1 construct: assays using recombinant GST-ALK5 (residues 198-503)
T1 sequence (P36897 198-503): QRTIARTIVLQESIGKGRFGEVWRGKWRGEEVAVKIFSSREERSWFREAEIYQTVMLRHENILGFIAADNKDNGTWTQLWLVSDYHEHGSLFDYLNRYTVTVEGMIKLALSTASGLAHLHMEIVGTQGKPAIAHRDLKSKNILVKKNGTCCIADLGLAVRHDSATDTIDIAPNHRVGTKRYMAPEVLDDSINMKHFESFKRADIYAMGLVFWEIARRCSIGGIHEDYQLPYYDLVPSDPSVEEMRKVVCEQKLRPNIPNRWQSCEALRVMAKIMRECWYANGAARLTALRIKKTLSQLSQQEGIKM
In words: Alk5 fluorescence polarization assay. As to conditions: rhodamine green-labelled ligand 1 nM, ALK5 10 nM, read-out: ALK5 receptor modulator activity (IC50). It is filed as binding. The method, then: Assay 2 (Alk5 Fluorescence Polarization Assay)
Kinase inhibitor compounds conjugated to fluorophores, can be used as fluorescent ligands to monitor ATP competitive binding of other compounds to a given kinase. The increase in depolarization of plane polarized light, caused by release of the bound ligand into solution, is measured as a polarization/anisotropy value. This protocol details the use of a rhodamine green-labelled ligand for assays using recombinant GST-ALK5 (residues 198-503).
Assay buffer components: 62.5 mM Hepes pH 7.5 (Sigma H-4034), 1 mM DTT (Sigma D-0632), 12.5 mM MgCl2 (Sigma M-9272), 1.25 mM CHAPS (Sigma C-3023). […]
ALK5 was added to assay buffer containing the above components and 1 nM of the rhodamine green-labelled ligand so that the final ALK5 concentration was 10 nM based on active site titration of the enzyme. […] The plates were read immediately on a LJL Acquest fluorescence reader (Molecular Devices, serial number AQ1048) with excitation, emission, and dichroic filters of 485 nm, 530 nm, and 505 nm, respectively. The fluorescence polarization for each well was calculated by the Acquest reader and then imported into curve fitting software for construction of concentration response curves. The normalized response was determined relative to the high controls (1 μl DMSO in column 12, rows A-D) and the low controls (1 μl of control compound in column 12, rows E-H). […]
For orientation: In fluorescence polarisation assays a small probe gives low polarisation when free and higher when bound to something large.

The structures appear in SMILES notation.

With `CS(=O)(=O)Nc1ccc(-c2cc(-c3c(-c4cccc(Cl)c4)nc4ccccn34)ccn2)cc1` [Example 11, 2-(3-chloro-phenyl)-3-[2-(4-(methanesulfonylamino)phenyl)-pyridin-4-yl]-imidazo[1,2-a]pyridine], the melting point – broadly, the temperature of the solid-liquid transition – was determined as 60 °C.
Same read-out and setting: the figure for `Cc1cccc(-c2nc3c(C)cccn3c2-c2ccnc(-c3ccc(CN4CCOCC4)cc3)c2)n1` [Example 24, 8-Methyl-2-(6-methyl-pyridin-2-yl)-3-{2-[4-((morpholin-4-yl)methyl)phenyl]-pyridin-4-yl}-imidazo[1,2-a]pyridine] is 122 °C.
Same read-out and setting: the figure for `CC(=O)Nc1ccc(-c2cc(-c3c(-c4ccccn4)nc4ccccn34)ccn2)cc1` [Example 9, 3-[2-(4-(Methylcarbonylamino)phenyl)-pyridin-4-yl]-2-pyridin-2-yl-imidazo[1,2-a]pyridine] is 133 °C; for `CC(=O)Nc1ccc(-c2cc(-c3c(-c4cccc(C)n4)nc4ccccn34)ccn2)cc1` [Example 10, 3-[2-(4-(methylcarbonylamino)phenyl)-pyridin-4-yl]-2-(6-methyl-pyridin-2-yl)-imidazo[1,2-a]pyridine] it is 257 °C; for `COc1ccc(-c2cc(-c3c(-c4cccc(C)n4)nc4ccccn34)ccn2)cc1` [Example 2, 3-[2-(4-methoxy-phenyl)-pyridin-4-yl]-2-(6-methyl-pyridin-2-yl)-imidazo[1,2-a]pyridine] it is 174 °C.
On the same count and under the same terms, the figure for `Clc1cccc(-c2nc3ccccn3c2-c2ccnc(-c3ccc(OCCN4CCCC4)cc3)c2)c1` [Example 37, 2-(3-Chloro-phenyl)-3-{2-[4-(2-(pyrrolidin-1-yl)ethoxy)phenyl]-pyridin-4-yl}-imidazo[1,2-a]pyridine] is 298 °C.
Turning to `Fc1ccc(-c2nc3ccccn3c2-c2ccnc(-c3ccc(CN4CCOCC4)cc3)c2)cc1Cl` [Example 18, 2-(3-Chloro-4-fluoro-phenyl)-3-[2-(4-(morpholin-4-yl-methyl)phenyl)-pyridin-4-yl]-imidazo[1,2-a]pyridine], the melting point was 189 °C.
In the case of `O=C(c1ccc(-c2cc(-c3c(-c4cccc(F)n4)nc4ccccn34)ccn2)cc1)N1CCOCC1` [Example 33, 2-(6-Fluoro-pyridin-2-yl)-3-{2-[4-((morpholiny-4-yl)carbonyl)phenyl]-pyridin-4-yl}-imidazo[1,2-a]pyridine], the melting point was 191 °C.
On the same count and under the same terms, as for `O=C(NC1CCOCC1)c1ccc(-c2cc(-c3c(-c4ccccn4)nc4ccccn34)ccn2)cc1` [Example 26, 3-[2-(4-((Tetrahydropyran-4-yl)aminocarbonyl)phenyl)-pyridin-4-yl]-2-pyridin-2-yl-imidazo[1,2-a]pyridine], the figure is 179 °C.
Consider `Cc1cccc(-c2nc3ccccn3c2-c2ccnc(-c3ccc(S(C)(=O)=O)cc3)c2)n1` [Example 6, 3-[2-(4-Methanesulfonyl-phenyl)-pyridin-4-yl]-2-(6-methyl-pyridin-2-yl)-imidazo[1,2-a]pyridine], for which the IC50 (commonly the concentration that inhibits the measured activity by half) in series [1] came to 0.125 µM; in series [2] it was 0.011 µM.
With `Cc1cccc(-c2nc3ccccn3c2-c2ccnc(-c3ccc(C(=O)NC4CCOCC4)cc3)c2)n1` [Example 27, 3-[2-(4-((tetrahydropyran-4-yl)aminocarbonyl)phenyl)-pyridin-4-yl]-2-(6-methyl-pyridin-2-yl)-imidazo[1,2-a]pyridine], the melting point is 128 °C.
The compound `Cc1ccn2c(-c3ccnc(-c4ccc(OCCN5CCCC5)cc4)c3)c(-c3cccc(C)n3)nc2c1` [Example 38, 7-Methyl-2-(6-methyl-pyridin-2-yl)-3-{2-[4-(2-(pyrrolidin-1-yl)ethoxy)phenyl]-pyridin-4-yl}-imidazo[1,2-a]pyridine] showed a melting point of 163 °C. In addition, the IC50 in series [1] amounted to 0.127 µM. Besides, the IC50 in series [2] was determined as 0.015 µM.
Regarding `c1ccc(-c2nc3ccccn3c2-c2ccnc(-c3ccc(CN4CCOCC4)cc3)c2)nc1` [Example 17, 3-[2-(4-(Morpholin-4-yl-methyl)-phenyl)-pyridin-4-yl]-2-pyridin-2-yl-imidazo[1,2-a]pyridine], the melting point was 80 °C (dec.).
Turning to `Cc1ccn2c(-c3ccnc(-c4ccc(CN5CCOCC5)cc4)c3)c(-c3cccc(C)n3)nc2c1` [Example 22, 7-Methyl-2-(6-methyl-pyridin-2-yl)-3-[2-(4-(morpholin-4-yl-methyl)phenyl)-pyridin-4-yl]-imidazo[1,2-a]pyridine], the melting point amounted to 188 °C.
`Cc1cccc(-c2nc3ccc(Cl)cn3c2-c2ccnc(-c3ccc(CN4CCOCC4)cc3)c2)n1` [Example 21, 6-Chloro-2-(6-methyl-pyridin-2-yl)-3-[2-(4-(morpholin-4-yl-methyl)phenyl)-pyridin-4-yl]-imidazo[1,2-a]pyridine]: the melting point was determined as 157 °C.
On the same count and under the same terms, as for `Cc1cccc(-c2nc3ccccn3c2-c2ccnc(-c3ccc(C#N)cc3)c2)n1` [Example 4], the figure is 214 °C; as for `CS(=O)(=O)c1ccc(-c2cc(-c3c(-c4ccccn4)nc4ccccn34)ccn2)cc1` [Example 5, 3-[2-(4-Methanesulfonyl-phenyl)-pyridin-4-yl]-2-pyridin-2-yl-imidazo[1,2-a]pyridine], 242 to 244 °C; as for `Cc1cccc(-c2nc3ccccn3c2-c2ccnc(-c3ccc(OC(F)(F)F)cc3)c2)n1` [Example 3, 2-(6-methyl-pyridin-2-yl)-3-[2-(4-trifluoromethoxy-phenyl)-pyridin-4-yl]-imidazo[1,2-a]pyridine], 120 °C.
Same read-out and setting: as for `Fc1ccc(-c2nc3ccccn3c2-c2ccnc(-c3ccc(CN4CCOCC4)cc3)c2)cc1F` [Example 20, 2-(3,4-Difluoro-phenyl)-3-[2-(4-(morpholin-1-yl-methyl)phenyl)-pyridin-4-yl]-imidazo[1,2-a]pyridine], the figure is 205 °C; as for `Cc1cccc(-c2nc3ccc(Cl)cn3c2-c2ccnc(-c3ccc(CN4CCCC4)cc3)c2)n1` [Example 23, 6-Chloro-2-(6-methyl-pyridin-2-yl)-3-[2-(4-(pyrrolidin-1-yl-methyl)phenyl)-pyridin-4-yl]-imidazo[1,2-a]pyridine], 134 °C; as for `CCN1CCN(C(=O)c2ccc(-c3cc(-c4c(-c5cccc(C)n5)nc5c(C)cccn45)ccn3)cc2)CC1` [Example 32, 8-Methyl-2-(6-methyl-pyridin-2-yl)-3-{2-[4-((1-ethyl-piperazin-4-yl)carbonyl)phenyl]-pyridin-4-yl}-imidazo[1,2-a]pyridine], 212 °C.
The same measure, in the same setting: as for `Fc1ccc(-c2nc3ccccn3c2-c2ccnc(-c3ccc(CN4CCCC4)cc3)c2)cc1F` [Example 19, 2-(3,4-Difluoro-phenyl)-3-[2-(4-(pyrrolidin-1-yl-methyl)phenyl)-pyridin-4-yl]-imidazo[1,2-a]pyridine], the figure is 155 °C.
In turn, `CC(=O)c1ccc(-c2cc(-c3c(-c4ccccn4)nc4ccccn34)ccn2)cc1` [Example 8, 3-[2-(4-(Acetyl)phenyl)-pyridin-4-yl]-2-(pyridin-2-yl)-imidazo[1,2-a]pyridine] had a melting point of 214 °C.
